Patent US20110280806A1, “DYE CONJUGATE IMAGING AGENTS” (priority 2008, published 2011)

Assay: Absorbance of Dye A vs cyanine dye Cy7 (diode array spectrophotometer)
Format: physicochemical
Details: 2.5 μM solution, DMSO diluted in PBS
Protocol: (a) Absorbance and fluorescence of Dye A vs Cyanine Dye Cy7.
0.1 to 0.2 mg vials of the dyes were dissolved initially in 100 μl DMSO and then diluted in PBS to the specified concentrations. Absorbance measurements were performed on 2.5 μM solutions, with a HP 8452A Diode array spectrophotometer. Fluorescence measurements were performed on 250 nM solutions, with a Varian Cary Eclipse Fluorescence Spectrophotometer at standardised instrument settings (600V PMT setting).

| Structure (SMILES) | measured absorbance equates to (molar extinction) (at 748 nm) | measured absorbance equates to (molar extinction) (at 746 nm) |
| --- | --- | --- |
| CCN1C(=CC=CC=CC=CC2=[N+](CCCCCC(=O)O)c3ccc(S(=O)(=O)O)cc3C2(C)C)C(C)(C)c2cc(S(=O)(=O)[O-])ccc21 [Cy7] | 250,000 /M/cm |  |
| CN1C2=C/C(=C/C=C/C3=CC4=[N+](C)c5ccccc5C4(C)C(C)(C)C3)CC(C)(C)C2(C)c2ccccc21 (centres unmarked) [Dye A, 4,4,4a,9-Tetramethyl-2-(3-(1E-4,4,4a,9-tetramethyl-4,4a-dihydro-3H-carbazol-2-ylidenyl)prop-1-enyl)-4,4a-dihydro-3H-carbazolium iodide] |  | 260,000 /M/cm |
